Data from ChEMBL document CHEMBL1126101, “Synthesis and structure-activity relationships of acetylcholinesterase inhibitors: 1-benzyl-4-(2-phthalimidoethyl)piperidine and related derivatives” (J Med Chem, 1992).

target: T1, Butyrylcholinesterase (Rattus norvegicus, UniProt Q9JKC1); assay: not given
T1 sequence (Q9JKC1 whole entry): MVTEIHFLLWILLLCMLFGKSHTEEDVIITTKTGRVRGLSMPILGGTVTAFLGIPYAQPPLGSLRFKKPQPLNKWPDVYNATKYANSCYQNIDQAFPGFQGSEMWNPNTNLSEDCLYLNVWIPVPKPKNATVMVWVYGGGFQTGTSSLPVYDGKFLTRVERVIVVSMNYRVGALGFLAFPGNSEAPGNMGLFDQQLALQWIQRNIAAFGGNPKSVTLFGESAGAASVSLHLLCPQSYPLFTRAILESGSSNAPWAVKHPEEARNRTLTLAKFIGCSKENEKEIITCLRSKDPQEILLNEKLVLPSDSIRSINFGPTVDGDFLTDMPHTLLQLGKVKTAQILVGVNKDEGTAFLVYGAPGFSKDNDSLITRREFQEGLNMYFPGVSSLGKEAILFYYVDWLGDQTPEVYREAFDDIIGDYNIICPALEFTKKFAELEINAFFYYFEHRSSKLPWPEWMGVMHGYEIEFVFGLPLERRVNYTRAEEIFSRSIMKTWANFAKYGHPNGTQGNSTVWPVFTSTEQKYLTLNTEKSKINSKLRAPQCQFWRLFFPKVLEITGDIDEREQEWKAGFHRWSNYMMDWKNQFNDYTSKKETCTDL

| Compound | IC50 [nM] |
| --- | --- |
| O=C(Nc1ccc2c(c1)C(=O)N(CCC1CCN(Cc3ccccc3)CC1)C2=O)c1ccccc1 | 42300 |

target: T2, Acetylcholinesterase (Mus musculus, UniProt P21836); assay: biochemical
T2 sequence (P21836 whole entry): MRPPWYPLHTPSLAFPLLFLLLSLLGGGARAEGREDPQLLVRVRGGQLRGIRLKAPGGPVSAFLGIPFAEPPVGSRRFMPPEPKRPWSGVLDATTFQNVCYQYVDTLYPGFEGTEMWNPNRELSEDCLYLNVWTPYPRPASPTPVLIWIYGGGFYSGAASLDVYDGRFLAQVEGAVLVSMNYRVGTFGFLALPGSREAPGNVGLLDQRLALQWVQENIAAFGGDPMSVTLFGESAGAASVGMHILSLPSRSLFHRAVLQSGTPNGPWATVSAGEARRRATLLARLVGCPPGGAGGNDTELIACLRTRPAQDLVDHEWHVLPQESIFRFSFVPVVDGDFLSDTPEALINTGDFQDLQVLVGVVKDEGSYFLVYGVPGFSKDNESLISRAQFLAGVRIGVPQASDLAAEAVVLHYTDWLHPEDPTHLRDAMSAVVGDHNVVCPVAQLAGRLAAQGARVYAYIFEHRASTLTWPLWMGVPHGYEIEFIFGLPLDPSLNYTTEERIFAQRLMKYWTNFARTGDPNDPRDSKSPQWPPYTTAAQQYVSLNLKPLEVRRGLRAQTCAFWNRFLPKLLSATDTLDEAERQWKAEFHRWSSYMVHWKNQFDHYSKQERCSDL
Description: In vitro inhibitory concentration against acetylcholinesterase (AChE) obtained from mouse brain homogenate.

| Compound | IC50 [nM] |
| --- | --- |
| COc1cccc(N(CCC2CCN(Cc3ccccc3)CC2)C(C)=O)c1 | 46 |
| O=C1CCCCN1CCC1CCN(Cc2ccccc2)CC1 | 270 |
| CC(=O)N(CCC1CCN(Cc2ccccc2)CC1)c1ccncc1 | 108 |
| O=C1c2ccc([N+](=O)[O-])cc2C(=O)N1CC1CCN(Cc2ccccc2)CC1 | 3000 |
| COc1ccc(N(CCC2CCN(Cc3ccccc3)CC2)C(C)=O)cc1 | 700 |
| O=C(C1CCCCC1)N(CCC1CCN(Cc2ccccc2)CC1)c1ccccc1 | 9400 |
| O=C1c2ccc([N+](=O)[O-])cc2C(=O)N1C1CCN(Cc2ccccc2)CC1 | 27000 |
| CC(=O)N(C)CCC1CCN(Cc2ccccc2)CC1 | 660 |
| O=C1Cc2ccccc2C(=O)N1CCC1CCN(Cc2ccccc2)CC1 | 23 |
| O=C1c2ccccc2C(=O)N1CCC1CCN(Cc2ccccc2)CC1 | 30 |
| O=C(c1ccc([N+](=O)[O-])cc1)N(CCC1CCN(Cc2ccccc2)CC1)c1ccccc1 | 5.4 |
| CN1CCC(CCN2C(=O)c3ccc([N+](=O)[O-])cc3C2=O)CC1 | 6800 |
| O=C(Nc1ccc2c(c1)C(=O)N(CCC1CCN(Cc3ccccc3)CC1)C2=O)c1ccccc1 | 1.2 |
| COc1ccc(C(=O)N(CCC2CCN(Cc3ccccc3)CC2)c2ccccc2)cc1 | 590 |
| Nc1cccc2c1C(=O)N(CCC1CCN(Cc3ccccc3)CC1)C2=O | 11 |
| c1ccc(CN2CCC(CCN3CCc4ccccc4C3)CC2)cc1 | 1600 |
| O=C1c2ccc([N+](=O)[O-])cc2C(=O)N1CCC1CCN(Cc2ccc(Cl)cc2)CC1 | 240 |
| O=c1c2ccccc2ccn1CCC1CCN(Cc2ccccc2)CC1 | 1100 |
| COc1ccc(CN2CCC(CCN3C(=O)c4ccc([N+](=O)[O-])cc4C3=O)CC2)cc1 | 440 |
| O=C(Nc1cccc2c1C(=O)N(CCC1CCN(Cc3ccccc3)CC1)C2=O)c1ccccc1 | 340 |
| CNC(=O)Oc1ccc2c(c1)[C@]1(C)CCN(C)[C@@H]1N2C [PHYSOSTIGMINE] | 0.69 |
| CN(CCC1CCN(Cc2ccccc2)CC1)C(=O)c1ccc(S(=O)(=O)Cc2ccccc2)cc1 | 0.56 |
| O=c1c2ccccc2ncn1CCC1CCN(Cc2ccccc2)CC1 | 1200 |
| CCC(=O)N(CCC1CCN(Cc2ccccc2)CC1)c1ccccc1 | 830 |
| O=C1c2ccc([N+](=O)[O-])cc2C(=O)N1CCC1CCN(Cc2ccccc2)CC1 | 12.5 |
| CC(=O)N(CCC1CCN(Cc2ccccc2)CC1)c1cccc(F)c1 | 65 |
| O=C1c2ccccc2CN1CCC1CCN(Cc2ccccc2)CC1 | 98 |
| CC(=O)N(CCC1CCN(Cc2ccccc2)CC1)c1ccc(F)cc1 | 205 |

target: T1, Butyrylcholinesterase; assay: In vitro inhibitory concentration against butyrylcholinesterase (BuChE) obtained from rat plasma; format: cell-free

| Compound | IC50 [nM] |
| --- | --- |
| CNC(=O)Oc1ccc2c(c1)[C@]1(C)CCN(C)[C@@H]1N2C [PHYSOSTIGMINE] | 8.1 |
